The target of experiment [1] is STK39/STLK3 (Homo sapiens, UniProt Q9UEW8). Briefly: biochemical. To be noted: read-out: % enzyme activity, 1 μM; Run 1, Run 2.
Experiment [2] deals with PKAcb (Homo sapiens, UniProt P22694). To be noted: 1 μM; Run 1, Run 2.
Experiment [3] addresses T1, TNK1 (Homo sapiens, UniProt Q13470).
T1 sequence (Q13470 1-666): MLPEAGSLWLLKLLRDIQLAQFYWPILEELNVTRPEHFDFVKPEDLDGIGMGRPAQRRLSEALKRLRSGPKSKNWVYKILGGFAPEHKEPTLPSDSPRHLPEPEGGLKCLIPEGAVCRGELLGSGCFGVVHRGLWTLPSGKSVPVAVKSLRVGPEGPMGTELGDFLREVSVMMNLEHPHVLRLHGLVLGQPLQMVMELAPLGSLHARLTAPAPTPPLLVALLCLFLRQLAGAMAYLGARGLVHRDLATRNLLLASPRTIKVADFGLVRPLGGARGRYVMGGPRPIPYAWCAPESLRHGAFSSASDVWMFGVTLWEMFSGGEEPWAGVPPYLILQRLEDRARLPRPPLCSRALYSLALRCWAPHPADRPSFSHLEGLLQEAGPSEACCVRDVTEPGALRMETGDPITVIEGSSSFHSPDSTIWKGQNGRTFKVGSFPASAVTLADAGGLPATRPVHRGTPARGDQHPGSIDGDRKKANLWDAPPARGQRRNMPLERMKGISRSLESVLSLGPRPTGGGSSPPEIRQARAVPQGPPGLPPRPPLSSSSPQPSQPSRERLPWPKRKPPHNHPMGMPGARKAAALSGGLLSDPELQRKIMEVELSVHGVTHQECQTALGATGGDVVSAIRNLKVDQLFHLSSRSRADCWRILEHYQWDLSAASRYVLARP
The experiment in a line: biochemical. As to conditions: read-out: % enzyme activity, 1 μM; Run 1, Run 2.

The target of experiment [4] is T2, SNRK (Homo sapiens, UniProt Q9NRH2).
T2 sequence (Q9NRH2 1-765): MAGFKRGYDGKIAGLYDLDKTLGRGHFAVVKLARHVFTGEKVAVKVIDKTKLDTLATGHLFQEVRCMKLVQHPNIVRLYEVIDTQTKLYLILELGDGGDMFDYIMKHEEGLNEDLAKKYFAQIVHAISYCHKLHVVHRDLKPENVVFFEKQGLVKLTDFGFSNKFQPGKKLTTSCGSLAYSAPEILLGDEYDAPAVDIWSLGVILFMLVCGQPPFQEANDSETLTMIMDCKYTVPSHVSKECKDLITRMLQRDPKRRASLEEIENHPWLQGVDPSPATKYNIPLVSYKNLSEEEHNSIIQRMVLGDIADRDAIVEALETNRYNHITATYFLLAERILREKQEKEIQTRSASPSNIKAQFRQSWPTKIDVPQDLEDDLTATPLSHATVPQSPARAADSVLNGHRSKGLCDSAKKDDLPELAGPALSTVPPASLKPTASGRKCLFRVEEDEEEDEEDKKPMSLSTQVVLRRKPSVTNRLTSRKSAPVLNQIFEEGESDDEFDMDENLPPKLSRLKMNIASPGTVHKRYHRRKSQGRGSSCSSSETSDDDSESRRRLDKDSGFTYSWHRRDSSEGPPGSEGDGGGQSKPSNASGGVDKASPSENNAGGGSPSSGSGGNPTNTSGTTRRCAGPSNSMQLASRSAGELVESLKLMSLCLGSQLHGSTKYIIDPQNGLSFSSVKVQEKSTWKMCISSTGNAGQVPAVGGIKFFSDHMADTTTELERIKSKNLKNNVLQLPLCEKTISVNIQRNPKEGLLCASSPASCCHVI
The experiment in a line: biochemical. To be noted: read-out: % enzyme activity, 1 μM; Run 1, Run 2.

In experiment [5] the target is T3, NEK9 (Homo sapiens, UniProt Q8TD19).
T3 sequence (Q8TD19 1-979): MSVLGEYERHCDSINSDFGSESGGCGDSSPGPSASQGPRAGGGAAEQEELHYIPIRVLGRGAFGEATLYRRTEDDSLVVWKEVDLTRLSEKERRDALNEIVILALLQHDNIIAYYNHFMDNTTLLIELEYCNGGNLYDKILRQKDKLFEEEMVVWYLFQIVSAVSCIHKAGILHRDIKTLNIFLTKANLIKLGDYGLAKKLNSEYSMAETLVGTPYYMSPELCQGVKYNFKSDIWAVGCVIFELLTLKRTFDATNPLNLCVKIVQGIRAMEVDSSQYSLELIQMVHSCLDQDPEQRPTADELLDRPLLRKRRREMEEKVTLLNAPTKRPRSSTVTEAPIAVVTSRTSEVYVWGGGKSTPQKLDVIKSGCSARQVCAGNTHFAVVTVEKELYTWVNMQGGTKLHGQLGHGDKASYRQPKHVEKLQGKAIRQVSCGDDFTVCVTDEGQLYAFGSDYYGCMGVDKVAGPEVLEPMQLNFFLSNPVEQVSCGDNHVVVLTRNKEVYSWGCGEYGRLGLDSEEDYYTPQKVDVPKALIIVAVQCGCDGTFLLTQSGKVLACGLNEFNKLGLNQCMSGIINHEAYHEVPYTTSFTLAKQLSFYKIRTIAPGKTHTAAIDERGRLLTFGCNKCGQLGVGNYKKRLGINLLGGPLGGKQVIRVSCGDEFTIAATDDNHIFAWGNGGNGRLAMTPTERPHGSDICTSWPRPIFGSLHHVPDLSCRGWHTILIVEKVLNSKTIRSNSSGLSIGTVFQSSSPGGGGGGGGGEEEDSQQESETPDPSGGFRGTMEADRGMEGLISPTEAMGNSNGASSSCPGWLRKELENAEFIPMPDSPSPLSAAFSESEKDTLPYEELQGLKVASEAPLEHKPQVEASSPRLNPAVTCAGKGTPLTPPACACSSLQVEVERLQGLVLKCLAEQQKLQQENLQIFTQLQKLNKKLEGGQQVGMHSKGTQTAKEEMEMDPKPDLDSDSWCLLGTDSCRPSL
To be noted: 1 μM; Run 1, Run 2.

Experiment [6] concerns the target NEK7 (Homo sapiens, UniProt Q8TDX7). The experiment in a line: biochemical. To be noted: read-out: % enzyme activity, 1 μM; Run 1, Run 2.
Experiment [7] has as its target CDK3/cyclin E (Homo sapiens, UniProt Q00526). Briefly: biochemical. As to conditions: read-out: % enzyme activity, 1 μM; Run 1, Run 2.

Structures are written as SMILES.

Chain of NEK7 (Q8TDX7 whole entry): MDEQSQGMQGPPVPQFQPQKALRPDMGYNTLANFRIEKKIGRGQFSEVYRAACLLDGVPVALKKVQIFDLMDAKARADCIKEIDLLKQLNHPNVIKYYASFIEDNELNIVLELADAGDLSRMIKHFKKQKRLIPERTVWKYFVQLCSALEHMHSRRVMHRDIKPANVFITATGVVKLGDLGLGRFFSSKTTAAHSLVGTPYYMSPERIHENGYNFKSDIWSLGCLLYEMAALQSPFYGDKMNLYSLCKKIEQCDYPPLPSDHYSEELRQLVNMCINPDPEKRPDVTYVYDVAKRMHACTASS
Chain of CDK3/cyclin E (Q00526 whole entry): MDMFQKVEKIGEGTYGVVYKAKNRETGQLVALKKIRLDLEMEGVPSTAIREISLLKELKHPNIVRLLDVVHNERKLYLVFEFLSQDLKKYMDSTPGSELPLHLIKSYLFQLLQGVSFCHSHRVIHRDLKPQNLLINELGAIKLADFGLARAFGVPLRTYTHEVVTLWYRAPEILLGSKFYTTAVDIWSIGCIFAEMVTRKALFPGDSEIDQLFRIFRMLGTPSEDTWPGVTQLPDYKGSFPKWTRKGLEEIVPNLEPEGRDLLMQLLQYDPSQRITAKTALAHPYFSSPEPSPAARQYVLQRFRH
Chain of CDK3/cyclin E (P24864 whole entry, further chain): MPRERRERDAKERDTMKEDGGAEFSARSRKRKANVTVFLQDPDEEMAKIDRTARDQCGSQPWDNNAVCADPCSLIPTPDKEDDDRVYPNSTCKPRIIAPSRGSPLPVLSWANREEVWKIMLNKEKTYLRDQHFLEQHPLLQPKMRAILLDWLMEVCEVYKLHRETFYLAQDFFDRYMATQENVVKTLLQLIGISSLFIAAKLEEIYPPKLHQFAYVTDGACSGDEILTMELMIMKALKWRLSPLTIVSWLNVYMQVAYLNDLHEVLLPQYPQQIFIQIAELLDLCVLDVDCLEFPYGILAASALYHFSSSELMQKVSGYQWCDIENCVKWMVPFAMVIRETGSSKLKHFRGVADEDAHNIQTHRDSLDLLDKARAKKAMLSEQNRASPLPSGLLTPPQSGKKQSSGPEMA

As to `COc1cc(-c2cncc(-c3ccc(N4C[C@@H](C)N(C)[C@@H](C)C4)cc3)c2C)cc(F)c1C(N)=O` [Compound 26c, 2-Fluoro-6-methoxy-4-(4-methyl-5-(4-((3R,5S)-3,4,5-trimethylpiperazin-1-yl)phenyl)pyridin-3-yl)benzamide], the remaining activity at 1 µM in experiment [1] stood at 95.7%; in experiment [3] it was 98.6%; in experiment [4] it was 100%; in experiment [6], 97.4%; in experiment [7], 78.7%. The “% enzyme activity” value turned out to be 96.20% in experiment [2] and 93.51% in experiment [5].
In the case of `COc1cc(-c2cncc(-c3ccc(N4CCN(C)CC4)cc3)c2C)cc(F)c1C(N)=O` [Compound 26a, 2-Fluoro-6-methoxy-4-(4-methyl-5-(4-(4-methylpiperazin-1-yl)phenyl)pyridin-3-yl)benzamide], the remaining activity at 1 µM came to 89.1% in experiment [1]; 105% in experiment [3]; 105% in experiment [4]; 97.6% in experiment [6]; 82.7% in experiment [7]. The “% enzyme activity” value came out at 95.19% in experiment [2] and 91.72% in experiment [5].

The record behind these values is publication PMC8213057, “Targeting ALK2: An Open Science Approach to Developing Therapeutics for the Treatment of Diffuse Intrinsic Pontine Glioma” (Journal of Medicinal Chemistry, 2020).
